Experimental data from PubChem BioAssay (NCI).
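Assay format: 96-well plates, 48-hour exposure. TGI: concentration producing complete growth inhibition.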

Assays:
Experiment in all cases: NCI anticancer screen, dose series, 48 h
HT29 colon = test system: HT29 colon
U251 CNS = test system: U251 CNS
MDA-MB-231 breast = test system: MDA-MB-231 breast
SK-OV-3 ovarian = test system: SK-OV-3 ovarian
OVCAR-4 ovarian = test system: OVCAR-4 ovarian
UO-31 renal = test system: UO-31 renal
SNB-19 CNS = test system: SNB-19 CNS
MCF7 breast = test system: MCF7 breast
SK-MEL-5 melanoma = test system: SK-MEL-5 melanoma
ACHN renal = test system: ACHN renal
OVCAR-8 ovarian = test system: OVCAR-8 ovarian
RPMI-8226 leukemia = test system: RPMI-8226 leukemia
A498 renal = test system: A498 renal
HS 578T breast = test system: HS 578T breast
MDA-MB-435 = test system: MDA-MB-435
M14 melanoma = test system: M14 melanoma
NCI/ADR-RES ovarian = test system: NCI/ADR-RES ovarian
OVCAR-5 ovarian = test system: OVCAR-5 ovarian
CAKI-1 renal = test system: CAKI-1 renal
EKVX NSCLC = test system: EKVX NSCLC

| SMILES | TGI (HT29 colon) [µM] | TGI (U251 CNS) [µM] | TGI (MDA-MB-231 breast) [µM] | TGI (SK-OV-3 ovarian) [µM] | TGI (OVCAR-4 ovarian) [µM] | TGI (UO-31 renal) [µM] | TGI (SNB-19 CNS) [µM] | TGI (MCF7 breast) [µM] | TGI (SK-MEL-5 melanoma) [µM] | TGI (ACHN renal) [µM] | TGI (OVCAR-8 ovarian) [µM] | TGI (RPMI-8226 leukemia) [µM] | TGI (A498 renal) [µM] | TGI (HS 578T breast) [µM] | TGI (MDA-MB-435) [µM] | TGI (M14 melanoma) [µM] | TGI (NCI/ADR-RES ovarian) [µM] | TGI (OVCAR-5 ovarian) [µM] | TGI (CAKI-1 renal) [µM] | TGI (EKVX NSCLC) [µM] |
| --- | --- | --- | --- | --- | --- | --- | --- | --- | --- | --- | --- | --- | --- | --- | --- | --- | --- | --- | --- | --- |
| O=C1c2ccccc2C(=O)c2c1ccc1nc3c(nc21)-c1c2ccccc2cc2cccc-3c12 | > 100 | > 100 | > 100 | > 100 | > 100 | > 100 | > 100 | > 91.5 | > 100 | > 57.6 | > 100 | > 100 | > 82.5 | > 52.4 | 38.6 | > 100 | > 100 | > 100 | > 100 | > 100 |
| O=c1[nH]c(=O)n(C2OC(CO)C(O)C2O)c2ccsc12 (stereo not drawn) | > 100 | > 100 | > 100 | – | > 100 | > 100 | – | > 100 | > 100 | > 100 | – | > 100 | > 100 | > 100 | > 100 | > 100 | > 100 | > 100 | > 100 | > 100 |
| CCOC(=O)C1=C(C)OC(=O)[C@@]2(OC)C=C(Cl)[C@@]12C | > 100 | > 100 | > 100 | > 100 | > 100 | > 100 | > 100 | > 100 | > 100 | > 100 | > 100 | > 100 | > 100 | > 100 | > 100 | > 100 | > 100 | > 100 | > 100 | > 100 |
| CC(=O)Nc1sc([N+](=O)[O-])cc1S(=O)(=O)c1ccc(Cl)cc1 | > 52.8 | > 35.5 | > 29.6 | 15.6 | > 100 | 14.7 | > 100 | 9.41 | 1.95 | 10.6 | > 100 | > 100 | > 27.9 | 17.2 | > 53.3 | 9.79 | 64 | > 100 | > 20.8 | > 100 |
| NCCCCN(CCCN)C(=O)c1ccccc1 | > 100 | > 100 | > 100 | > 100 | > 100 | > 100 | > 100 | > 100 | > 100 | > 100 | > 100 | > 100 | > 100 | > 100 | > 100 | > 100 | > 100 | > 100 | > 100 | > 100 |
| O=C(O)[C@@H]1CCC(=O)N1C(c1ccc2c(c1)OCO2)c1ccc2c(c1)OCO2 | > 100 | > 100 | > 100 | – | > 100 | > 100 | > 100 | > 100 | > 100 | > 100 | > 100 | > 100 | > 100 | > 100 | > 100 | > 100 | > 100 | > 100 | > 100 | > 100 |
| O=c1ssc(Cl)c1Nc1c(Cl)ssc1=O | 47.5 | 36.8 | 41.1 | 59 | 35.8 | 32.4 | 69.1 | > 63 | 32 | > 54.3 | 51.3 | 29.9 | 31.7 | > 100 | 37.7 | 39.8 | 71.4 | 37.3 | 32 | 41.4 |
| COc1ccc(/C=C2\N=C3Sc4c(nc[nH]c4=O)N3C2=O)cc1 | > 100 | > 100 | > 100 | > 100 | > 100 | > 100 | > 100 | > 100 | > 100 | > 100 | > 100 | > 100 | > 100 | > 100 | > 100 | > 100 | > 100 | > 100 | > 100 | > 100 |
| Nc1ccc(N=Nc2ccc(-c3ccc(O)cc3)cc2)c2ccc(S(=O)(=O)O)cc12 | > 100 | > 100 | > 100 | > 100 | > 100 | > 100 | > 100 | > 100 | > 100 | > 100 | > 100 | > 100 | > 100 | > 100 | > 100 | > 100 | > 100 | > 100 | > 100 | > 100 |
| CCOC(=O)[C@H](O)[C@@H](O)C(=O)NCc1ccc(C(=O)c2ccccc2)cc1 | > 100 | > 100 | > 100 | > 100 | > 100 | > 100 | > 100 | > 100 | > 100 | > 100 | > 100 | > 100 | > 100 | > 100 | > 100 | > 100 | > 100 | > 100 | > 100 | > 100 |
| CCOC(=O)CC1(O)CCCCC1(Sc1ccc(C)cc1)Sc1ccc(C)cc1 (stereo not drawn) | > 100 | > 100 | > 100 | > 100 | > 100 | > 100 | > 100 | > 100 | > 100 | > 100 | > 100 | – | > 100 | 84.4 | > 100 | > 100 | > 100 | > 100 | > 100 | > 100 |
| CCCCCCCCCCCCCCCC(=O)OCC1CCCN2CCCCC12 (stereo not drawn) | > 100 | > 100 | > 100 | > 100 | > 100 | > 100 | > 100 | > 100 | > 100 | > 100 | > 100 | > 100 | > 100 | > 100 | > 100 | > 100 | > 100 | > 100 | > 100 | > 100 |
| O=C(CC(C(=O)c1ccco1)c1cccs1)c1cccs1 (stereo not drawn) | > 100 | > 100 | > 100 | > 100 | > 100 | > 100 | > 100 | > 100 | > 100 | > 100 | > 100 | > 100 | > 100 | > 100 | > 100 | > 100 | > 100 | > 100 | > 100 | 97.8 |
| Cc1cnc(-c2c[nH]c3ccccc23)nc1-c1c[nH]c2ccccc12 | 14.7 | 19.7 | 7.78 | 24 | 24.3 | 20.8 | 24.9 | 19.1 | 20.5 | 10 | 22.7 | > 100 | 7.03 | > 100 | 19.8 | 16.4 | > 100 | 20.9 | 23.2 | 19.3 |
| CCC1(CCSC(=N)N)C(=O)NC(=O)NC1=O | > 100 | > 100 | > 100 | > 100 | > 100 | > 100 | > 100 | > 100 | > 100 | > 100 | > 100 | > 100 | > 100 | > 100 | > 100 | > 100 | > 100 | > 100 | > 100 | > 100 |
| O=C(O)c1ccc([N+]2=Cn3c(nc4ccccc43)C2)cc1 | > 100 | > 100 | > 100 | > 100 | > 100 | > 100 | > 100 | > 100 | > 100 | > 100 | > 100 | > 100 | > 100 | > 100 | > 100 | > 100 | > 100 | > 100 | > 100 | > 100 |
| O1C2C1C1OC1C1OC1C1OC21 (stereo not drawn) | > 100 | > 100 | > 100 | > 100 | > 100 | > 100 | > 100 | > 100 | > 100 | > 100 | > 100 | – | > 100 | > 100 | > 100 | > 100 | > 100 | > 100 | > 100 | > 100 |
| O=C(O)NCc1ccccc1 (tested in a mixture with another compound) | > 100 | > 77.6 | > 72.2 | > 100 | > 95.8 | 91.9 | > 100 | > 100 | 33.4 | > 100 | > 100 | 31.1 | 85.3 | > 82.8 | > 86.8 | 99.3 | > 90 | > 100 | > 100 | > 85.1 |
| O=C1C(c2c(O)[nH]c3ccc(S(=O)(=O)O)cc23)=Nc2ccc(Br)cc21 | > 100 | > 100 | > 100 | > 100 | > 100 | > 100 | > 100 | > 100 | > 100 | > 100 | > 100 | > 100 | > 100 | > 100 | > 100 | > 100 | > 100 | > 100 | > 100 | > 100 |
| C1=Nc2sc3c(c2C2=NCCN12)CCCC3 | 32.8 | 41.7 | 30.3 | – | 42.1 | 30.1 | 34.9 | 33.7 | 34.3 | 30.8 | 32.1 | 43.3 | 46.6 | 51.8 | 41 | – | 34.6 | 35.9 | 31.1 | 32 |
| Cc1ccc(/C(=C\C(=O)C(=O)NC23CC4CC(CC(C4)C2)C3)Sc2ccccc2)cc1 | > 10 | > 10 | > 10 | > 10 | > 10 | > 10 | – | > 10 | > 10 | > 10 | > 10 | > 10 | > 10 | > 10 | > 10 | > 10 | > 10 | > 10 | > 10 | > 10 |
| CC(=O)OC[C@@H]1[C@H]2CC[C@]3(C)[C@@H](OC(C)=O)CC[C@H]3[C@@H]2CC[C@H]1C1(C)SCCS1 | > 25 | > 25 | > 25 | – | > 25 | > 25 | > 25 | > 25 | > 25 | > 25 | > 25 | > 25 | > 25 | > 25 | > 25 | > 25 | > 25 | > 25 | > 25 | > 25 |
| O=C1/C(=C/c2ccc(Cl)cc2)N=C(c2ccccc2)N1c1nc2ccccc2s1 | > 100 | > 100 | > 100 | > 100 | > 100 | > 100 | – | > 100 | > 100 | > 100 | > 100 | > 100 | 97.1 | 75.7 | > 100 | > 100 | > 100 | > 100 | > 100 | > 100 |
| Fc1ccc(OCc2nc3cc(C(F)(F)F)ccc3nc2-c2ccccc2)cc1 | 64.9 | > 100 | > 100 | – | > 100 | > 100 | > 100 | > 100 | > 100 | > 100 | > 100 | > 100 | > 100 | > 100 | > 100 | > 100 | > 100 | > 100 | > 100 | > 100 |
